Literature values in patent US20050249757A1, “Pharmaceutical cream formulations” (Glenmark Pharmaceuticals Limited, priority 2004, published 2005).

Assays:
human subjects = details: 50 human subjects, total of 15 applications; manufacturer's brochure
rabbit skin = details: described as practically nonirritating
human T cells = details: Th1-type and Th2-type cytokines
macrophilin-12 (FKBP-12) = macrophilin-12 (FKBP-12) (Homo sapiens, UniProt P62942)
macrophilin-12 (FKBP-12), sequence (P62942 whole entry): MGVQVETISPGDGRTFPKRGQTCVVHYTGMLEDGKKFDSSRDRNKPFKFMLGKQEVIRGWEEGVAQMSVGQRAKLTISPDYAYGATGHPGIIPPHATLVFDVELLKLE

For CN1CCCC1=O [Pharmasolve, N-methyl-2-pyrrolidone], the “Dermal irritation and sensitization in repeated insult patch test” value (human subjects) is listed as “neither a primary dermal irritant nor a sensitizer” and the “PII (skin irritation)” value (rabbit skin) is listed as 0.5.

In the case of CC[C@@H]1/C=C(\C)C[C@H](C)C[C@H](OC)[C@H]2O[C@@](O)(C(=O)C(=O)N3CCCC[C@H]3C(=O)O[C@H](/C(C)=C/[C@@H]3CC[C@H](Cl)[C@H](OC)C3)[C@H](C)[C@@H](O)CC1=O)[C@H](C)C[C@@H]2OC [pimecrolimus, (1R,9S,12S,13R,14S,17R,18E,21 S,23S,24R,25S,27R)-12-[(1E)-2-{(1R,3R,4S)-4-chloro-3-methoxycyclohexyl}-1-methylvinyl]-17-ethyl-1,14-dihydroxy-23,25-dimethoxy-13,19,21,27-tetramethyl-11,28-dioxa-4-aza-tricyclo[22.3.1.04,9]octacos-18-ene-2,3,10,16-tetraone], the “Concentration inhibiting Interleukin-2, interferon gamma, Interleukin-4 and Interleukin-10 cytokine synthesis” value (human T cells) is given as “nanomolar concentrations” and the “Binding affinity to macrophilin-12 (FKBP-12)” value (macrophilin-12 (FKBP-12)) is given as “high affinity”.
